One assay has as its system Kelly or SH-SY5Y cells. In words: Viability / proliferation of neuroblastoma cell lines treated with lorlatinib. The assay is classed as cell-based, human. The note with it: 100 nM. The protocol:
First generation ALK tyrosine kinase inhibitors (TKIs), such as crizotinib, have limited therapeutic efficacy in neuroblastoma, while the third generation ALK TKI, lorlatinib, is effective against mutated neuroblastoma (Infarinato N R, et al., The ALK/ROS1 Inhibitor PF-06463922 Overcomes Primary Resistance to Crizotinib in ALK-Driven Neuroblastoma. Cancer Discov 2016 January; 6(1):96-107). The effects of lorlatinib on ALK viability and expression in neuroblastoma cells was evaluated. Several neuroblastoma cell lines with various ALK genetic alterations, including NB-1 (ALK WT amplified), IMR-32 (ALK WT), NBL-S(ALK WT), SH-SY5Y (mutated ALK^F1174L), Kelly (mutated ALK^F1174L), were treated with increasing doses of lorlatinib (FIG. 10A). Viability was measured at 48 hours.
In white 96-well plates, 3×10^4 cells/mL were grown in triplicates. The treatment with lorlatinib was done after 24 hour. Cell growth was analyzed 5 days after treatment using Cell Titer-GloMax assay (Promega, Fitchburg, Wis., USA), according to the manufacturer's instructions. In 24-well plates, 5×10^4 cells/mL were grown in triplicates. […] Apoptosis was measured 48 hours after treatment by flow cytometry after staining with the FITC Annexin V and propidium iodide (PI) Staining Solution Apoptosis Detection Kit I (BD Pharmingen) according to the manufacturer's instructions.

For assay [1], the system named is Eμ-myc/ALK systemic tumors. The assay can be described thus: Adoptive transfer in CD19+/ALK+ systemic leukemia model. Type of assay: in vivo, mice. The procedure:
The CD19+/ALK+systemic leukemia model was used to validate and rank cytolytic activity of ALK CARs in vivo. Adoptive transfer of ALK CAR-T cells was conducted in mice with Eμ-myc/ALK systemic tumors. Mice were treated with cytophspamide (CTX, 100 mg/kg) alone (n=8), cytophosphamide plus CAR-CD19 (15×10^6 based on GFP+) (n=8), or cytophosphamide plus CAR-ALK #5 (15×10^6 based on GFP+) (n=8). Untreated mice (n=6) were used as a negative control. FIG. 5A provides a survival curve of these treated mice.
Circulating CD19+/ALK+ tumor cells were found in peripheral blood (FIG. 5B, Left). An ALK+ tumor mass was isolated close to lymph node (FIG. 5B, Right). FACS analysis was also conducted on the 6 out of 8 mice that survived more than two months. No tumor cells were found in peripheral blood of these mice (FIG. 5C).

For the compound `C[C@H]1Oc2cc(cnc2N)-c2c(nn(C)c2C#N)CN(C)C(=O)c2ccc(F)cc21` [Lorlatinib, lorlatinib], the reduction of proliferation result with Kelly or SH-SY5Y cells was “less than 50%”.
`O=P1(N(CCCl)CCCl)NCCCO1` (stereo not drawn) [cyclophosphamide]: the “tumor cells in peripheral blood by FACS” value in assay [1] (CD19+/ALK+ cells) is “CD19+/ALK+ cells were found in one mouse”. For the same compound, the survival of mice entry in assay [1] (Eμ-myc/ALK systemic tumors, CTX 100 mg/kg, CAR-T 15×10^6 based on GFP+) was “died within one month”.

The values are drawn from patent US20230101046A1, “ANAPLASTIC LYMPHOMA KINASE CHIMERIC ANTIGEN RECEPTORS AND METHODS OF USE” (The Children's Medical Center Corporation, priority 2020, published 2023).
